Results: patent US5432160A, “Nutrient composition” (Kyowa Hakko Kohyo Co., Ltd., priority 1993, dated 1995)
Peptide text beside a SMILES is read from it.

How the values were obtained:
Type in all cases: physicochemical
[1] = Solubility: maximum amount dissolved in 1 liter of water; conditions: 25° C.
Experimental: Each of β-alanyl-L-glutamine, L-alanyl-L-glutamine (control) and L-glutamine (control) was dissolved into 1 liter of water (25° C.). Each of their maximum amounts dissolved in the water was determined.

[2] = Heat stability: residual rate after heat sterilization in an autoclave; conditions: aqueous 10 mM solution, pH 6.5, autoclave 120° C.
Experimental: Each of aqueous 10 mM solutions of β-alanyl-L-glutamine, L-alanyl-L-glutamine (control) and L-glutamine (control) adjusted at pH 6.5 with sodium hydroxide was heated in an autoclave at 120° C. for a period of 20 minutes or 120 minutes. The residual rate of each of the compounds after heating was determined.

[3] = as above; conditions: aqueous 10 mM solution, pH 6.5, autoclave 120° C., 20 minutes

Row | Amount Dissolved in 1 liter of Water [1] [g] | Residual Rate after Heat Sterilization 20 min. [2] [%] | Residual Rate after Heat Sterilization 20 min. ([2]; listed as L-alanyl-L-glutamine) | Residual Rate after Heat Sterilization 120 min. [2] [%] | Amount Dissolved in 1 liter of Water ([1]; listed as β-alanyl-L-glutamine) | Share decomposed after heating [3] | Residual Rate after Heat Sterilization 120 min. ([2]; listed as L-glutamine) | SMILES | Residual Rate after Heat Sterilization 20 min. ([2]; listed as β-alanyl-L-glutamine)
1 | 599 | 98 | partly decomposed | 91 | – | – | – | C[C@H](N)C(=O)N[C@@H](CCC(N)=O)C(=O)O [L-Alanyl-L-glutamine, L-alanyl-L-glutamine] (H-Ala-Gln-OH) | –
2 | 952 | 100 | – | 99 | highest solubility | – | – | NCCC(=O)N[C@@H](CCC(N)=O)C(=O)O [β-Alanyl-L-glutamine, β-alanyl-L-glutamine] | remained entirely without being decomposed
3 | 43 | 9 | – | 0 | – | about 90% | decomposed completely | NC(=O)CC[C@H](N)C(=O)O [L-Glutamine, L-glutamine] | –
